Values quoted from earlier work, collected in patent US5087633A (G. D. Searle & Co., priority 1989, dated 1992).

Conditions: in vivo; cited from earlier work

In the case of `CCCCCNCC(N)=O` [milacemide], the “Increase of whole brain content of glycine” value is given as 30%.
